PMC11997999, “Uncovering α-Selectivity for Liver X Receptor Agonists for Lipotoxic Cancer Therapies” (Journal of Medicinal Chemistry, 2025)

Key:
LXRβ LBD (GST) = molecular target: T1, LXRβ LBD (GST) (Homo sapiens, UniProt P55055); assay: Time-resolved LXR FRET assay (LanthaScreen TR-FRET LXRβ assay kit); assay type: biochemical; settings: 10 nM LXRβ LBD (GST), read after 6 h; R^2 of fit given; read-out: TR-FRET activity (EC50) LXRβ
T1 construct: 5 nM LXRα LBD (GST); 10 nM LXRβ LBD (GST); purchased ThermoFisher Scientific PV4658
T1 sequence (P55055 222-460 limits assumed): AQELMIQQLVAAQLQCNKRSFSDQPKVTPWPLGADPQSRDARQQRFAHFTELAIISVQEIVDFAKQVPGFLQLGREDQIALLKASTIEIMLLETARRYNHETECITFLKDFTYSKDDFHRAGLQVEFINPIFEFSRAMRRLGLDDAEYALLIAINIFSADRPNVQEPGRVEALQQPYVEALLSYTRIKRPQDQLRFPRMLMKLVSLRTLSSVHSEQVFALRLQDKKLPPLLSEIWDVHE
Description: The biochemical TR-FRET assays were performed using the LanthaScreen TR-FRET LXRα Coactivator Assay Kit, goat (ThermoFisher Scientific, PV4655), and the LanthaScreen TR-FRET LXRβ assay kit, goat (ThermoFisher Scientific, PV4658), according to the manufacturer’s instructions using the following concentrations: 5 nM LXRα LBD (GST); 10 nM LXRβ LBD (GST); 500 nM fluorescein-TRAP220/DRIP-2; 200 nM fluorescein-D22; 10 nM Tb anti-GST antibody. The TR-FRET signals were measured after 6 h using a TECAN SPARK multimode microplate reader with the following settings: first excitation wavelength: 360 nm (bandwidth 35 nm), first emission wavelength: 485 nm (bandwidth 20 nm); second excitation wavelength: 360 nm (bandwidth 35 nm), second emission wavelength: 535 nm (bandwidth 25 nm); integration time: 200 μs; lag time: 100 μs; settle time: 0 ms.

LXRα = molecular target: T2, LXRα (Homo sapiens, UniProt Q13133); assay: LXRα-specific LXRE-GFP reporter assay in Hep3B cells (NR1H2 knockout); assay type: cell-based; settings: 48h of treatment, GFP by FACS
T2 construct: To measure the activity of the remaining isoform under treatment; endogenous in cells; host or cells: Hep3B (NR1H2 knockout, LXRE-GFP reporter)
T2 sequence (Q13133 1-447): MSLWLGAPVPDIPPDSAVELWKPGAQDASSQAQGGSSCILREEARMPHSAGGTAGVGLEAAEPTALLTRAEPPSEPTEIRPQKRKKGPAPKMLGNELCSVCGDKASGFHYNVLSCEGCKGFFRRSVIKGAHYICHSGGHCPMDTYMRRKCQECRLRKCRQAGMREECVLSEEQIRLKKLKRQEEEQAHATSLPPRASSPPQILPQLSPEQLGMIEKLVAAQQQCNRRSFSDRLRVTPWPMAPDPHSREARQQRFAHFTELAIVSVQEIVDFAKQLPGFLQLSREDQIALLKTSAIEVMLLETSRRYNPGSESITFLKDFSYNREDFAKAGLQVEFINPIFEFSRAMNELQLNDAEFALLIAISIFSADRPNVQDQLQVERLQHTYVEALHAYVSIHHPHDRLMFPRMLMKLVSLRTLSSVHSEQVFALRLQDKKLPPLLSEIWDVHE

LXRβ = molecular target: T3, LXRβ (Homo sapiens, UniProt P55055); assay: LXRβ-specific LXRE-GFP reporter assay in Hep3B cells (NR1H3 knockout); assay type: cell-based; settings: 48h of treatment, GFP by FACS
T3 construct: To measure the activity of the remaining isoform under treatment; endogenous in cells; host or cells: Hep3B (NR1H3 knockout, LXRE-GFP reporter)
T3 sequence (P55055 1-460): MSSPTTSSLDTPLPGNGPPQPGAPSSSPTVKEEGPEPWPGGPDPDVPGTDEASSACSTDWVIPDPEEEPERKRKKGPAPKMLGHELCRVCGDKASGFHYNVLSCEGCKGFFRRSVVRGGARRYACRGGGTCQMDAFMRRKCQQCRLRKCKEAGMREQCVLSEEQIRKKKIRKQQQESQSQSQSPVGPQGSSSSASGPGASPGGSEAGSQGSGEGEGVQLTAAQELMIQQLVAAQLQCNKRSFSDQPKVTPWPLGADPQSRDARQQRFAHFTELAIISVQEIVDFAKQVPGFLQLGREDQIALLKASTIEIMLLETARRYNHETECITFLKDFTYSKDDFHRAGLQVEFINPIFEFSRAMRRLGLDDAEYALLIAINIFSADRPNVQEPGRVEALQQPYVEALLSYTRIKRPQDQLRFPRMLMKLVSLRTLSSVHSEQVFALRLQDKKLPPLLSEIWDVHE

[1] = test system: Akt1^Myr; Myc^OE HCC organoids; assay: Cell viability analysis in HCC organoids (CellTiter-Glo 3D); assay type: cell-based, murine; settings: 5d, with 4 μM sorafenib
From the text: Finally, we analyzed the efficacy of compound 40 in preclinical treatment studies in three-dimensional liver cancer organoid cultures. HCC organoids driven by myristoylated Akt1 and overexpressed Myc (Akt1^Myr; Myc^OE) were isolated from murine liver tumors and subjected to monotherapies of sorafenib, compound 40, or a combination thereof (Figure 7C). The therapeutic outcome was side-by-side compared with combinatorial therapies comprising the established agonists T0901317 (1) and GW3965 (2). […] Isolation of murine HCC organoid cultures was performed from liver tumors derived from C57BL/6 mice using established protocols.[26] The animal experiments were approved by committees of the regional authority of the state of Baden-Wuerttemberg (Regierungspraesidium Tuebingen, authorization number M15/18G) as appropriate. After digestion, the organoids were embedded in 100% Growth Factor Reduced (GFR) MatrigelTM (Corning) and cultured at 37 °C and 5% CO2 in HCC organoid medium supplemented with nicotinamide (10 mM), N-acetylcystein (1.25 mM), human HGF (50 ng/mL), human FGF-10 (100 ng/mL), human R-Spondin (0.5 μg/mL), forskolin (10 μM), A83- 01 (0.5 μM), murine Noggin (50 ng/mL), gastrin I (10 nM), human BMP-7 (25 ng/mL), human Wnt3a (100 ng/mL), B27 supplement (1×) and N2 supplement (1×). The cultures were split by mechanical dissociation every 3 to 4 days. […] Cell viability was determined after 5 days of treatment using the CellTiter-Glo 3D Cell Viability Assay Kit (Promega). Cell viability of Hep3B, AML12, and BNL CL.2 cells was determined after 5 days of treatment in white 96 well plates (Sarstedt) using the CellTiter-Glo 2.0 Cell Viability Assay Kit (Promega). […] The luminescence signal was measured using an […] M PLEX plate reader (Tecan) and the Tecan i-control software (v3.9.1). […]

Work on `O=C1C(Nc2ccc(N3CCCCC3)cc2)=C(c2ccccc2)C(=O)N1Cc1ccccc1` [Compound 40, 1-Benzyl-3-phenyl-4-((4-(piperidin-1-yl)phenyl)amino)-1H-pyrrole-2,5-dione] yielded an EC50 (LXRβ LBD (GST)) of 266 nM, an EC50 (LXRα) of 27 nM and an EC50 (LXRβ) of 631 nM. For the same compound, the “therapeutic efficacy (cell viability) in combination with sorafenib” value [1] was “further improved therapeutic efficacy”.
